# Like-named read-outs stand apart in the source and are kept apart here.
# What was measured:
# [1] = system: uterus (uterotonic contraction); settings: intramuscular route, as part of Syntometrine; cited from earlier work
# [2] = cited from earlier work; for Time of peak plasma levels: oral, substantially the same if administered vaginally
# blood pressure [3] = settings: animal studies; about 800 μg in a single dose; cited from earlier work
# blood pressure [4] = assay: Blood pressure effect of Misoprostol in humans; assay type: in vivo, human; settings: administered to humans; dosages up to 800 μg
# blood pressure [5] = settings: patients; about 400 μg; cited from earlier work
# [6] = system: women in the third stage of labour; assay type: in vivo
# Text: The study protocol was reviewed and approved by the local Ethics Committee. Information sheets explaining the aims of the trial were distributed to potential participants either in the antenatal classes, antenatal clinics, and the Day Assessment Area. On admission to labour ward women were reminded about the trial and a written informed consent was obtained if they still wished to participate in the study.
# The main objective of this study was to estimate the incidence of primary postpartum haemorrhage (PPH). This was defined as estimated blood loss of or more than 500 ml. Other measures of blood loss were also considered e.g. severe PPH i.e. >1000 ml; secondary PPH (after 24 hours); need for blood transfusion; use of therapeutic oxytocics (i.e. the need for extra oxytocics); length of third stage; incidence of manual removal of placenta; the need for subsequent evacuation of the retained products of conception; and the change in haemoglobin and packed cell volume in those who had instrumental delivery and/or who had blood loss of 500 ml or more compared to the Haemoglobin done late in pregnancy. Potential adverse effects of the drug used were also recorded e.g. incidence of vomiting, diarrhoea, shivering and hypertension (defined as diastolic blood pressure >100 or Systolic Blood pressure >150). All of these measures were documented by the midwife on call on a specially designed form with demographic information and information related to the type and circumstances of delivery.
# The principle criteria for exclusion were: placenta praevia, multiple pregnancy, intrauterine death, gestational age less than 32 weeks gestation, women with previous PPH and women in their sixth pregnancy or more. In this pilot study, women with hypertension, preeclampsia or pregnancy induced hypertension were also excluded.
# Syntometrine was not given but midwives were instructed to do so if they felt there was a clinical indication. Otherwise the delivery of the placenta was managed according to hospital policy (active management policy). Blood loss was estimated clinically by the attendant midwife or obstetrician. A sample of venous blood was obtained two days later after birth for haemoglobin and packed cell volume assessment from women who had instrumental delivery or from those who had blood loss of 500 ml or more. A record was kept of the last recorded blood pressure and temperature before birth and one hour after delivery.
# Categorical variables are summarised as numbers and percentages, whereas continuous variables that are normally distributed are presented as means and standard deviations (SD), continuous variables that are not normally distributed are presented as medians and interquartile ranges (IQR). Comparisons between the systolic, diastolic blood pressure, haemoglobin, haematocrit and temperature before and after delivery were conducted via the paired t-test. Association between two categorical variables was assessed via Chi-square testing. The significance level was set to the 5% level.
# [7] = after delivery (one hour), 600 μg oral, n = 184
# [8] = after minus before delivery, n = 184
# [9] = before delivery (last recorded, before drug), n = 184
# [10] = one hour after delivery vs last measured before delivery, not statistically significant
structure (smiles),measurement,setting,value
CC[C@H](C)[C@@H]1NC(=O)[C@H](Cc2ccc(O)cc2)NC(=O)[C@@H](N)CSSC[C@@H](C(=O)N2CCC[C@H]2C(=O)N[C@@H](CC(C)C)C(=O)NCC(N)=O)NC(=O)[C@H](CC(N)=O)NC(=O)[C@H](CCC(N)=O)NC1=O [syntocinon],Time to action,[1],about 2.5 minutes
CCCCC(C)(O)C/C=C/[C@H]1[C@H](O)CC(=O)[C@@H]1CCCCCCC(=O)OC (mixture of isomers) [Misoprostol],Unchanged drug in the plasma or urine after use,[2]; extensive metabolism during and/or prior to gastro intestinal absorption,no unchanged drug is detected
same,Time of peak plasma levels,[2],less than fifteen
same,Effect on blood pressure,blood pressure [3],mild hypotensive effect
same,Hypertensive effect,blood pressure [4],not hypertensive
same,Effect on blood pressure,blood pressure [5],substantially normotensive
same,Number with blood loss >= 500 ml,"[6]; 600 μg Misoprostol orally immediately after delivery, n = 237",13
same,Cases of infection,[6]; 600 μg oral,no cases
same,Incidence of shivering: patients who had epidural anaesthesia vs those who had not,[6]; 600 μg oral,no significant difference
same,Incidence of vomiting relative to that reported when syntometrine is used,[6]; 600 μg oral,almost half
same,% with blood loss > 1000 ml,"[6]; 600 μg oral, n = 237",(0%)
same,% with blood loss greater than 500,"[6]; 600 μg oral, n = 237",3%
same,% with diastolic - 100 (mm Hg),"[6]; 600 μg oral, n = 237",(0%)
same,% with haemoglobin < 9 (g/l),"[6]; 600 μg oral, n = 237",(2%)
same,% with systolic - 150 (mm Hg),"[6]; 600 μg oral, n = 237",(1%)
same,% with third stage length >= 30 minutes,"[6]; 600 μg oral, n = 237",(0.5%)
same,Median (IQR) of blood loss,"[6]; 600 μg oral, n = 237",200 mL
same,Median (IQR) third stage length,"[6]; 600 μg oral, n = 237",5 min
same,Number who had shivering,"[6]; 600 μg oral, n = 237",148
same,Number with blood loss > 1000 ml,"[6]; 600 μg oral, n = 237",0
same,Number with blood loss greater than 500,"[6]; 600 μg oral, n = 237",6
same,Number with diastolic - 100 (mm Hg),"[6]; 600 μg oral, n = 237",0
same,Number with haemoglobin < 9 (g/l),"[6]; 600 μg oral, n = 237",4
same,Number with manual removal of placenta,"[6]; 600 μg oral, n = 237",4
same,Number with repeat syntometrine injection,"[6]; 600 μg oral, n = 237",12
same,Number with systolic - 150 (mm Hg),"[6]; 600 μg oral, n = 237",2
same,Number with third stage length >= 30 minutes,"[6]; 600 μg oral, n = 237",1
same,Patients for whom blood transfusion was required,"[6]; 600 μg oral, n = 237",2 patients
same,Number who had diarrhoea (loose stool),"[6]; 600 μg oral, n = 237, first 24 hours after delivery",7
same,Number who vomited,"[6]; 600 μg oral, n = 237, first hour after delivery",19
same,Duration of shivering,"[6]; 600 μg oral, self-limiting, twenty minutes after swallowing the tablets",10 to 15 min
same,"Temperature, mean","[6]; after delivery (one hour), 600 μg oral, n = 182",37.1 C.
same,"Diastolic blood pressure, mean",[6]; [7],73.0 mm Hg
same,"Systolic blood pressure, mean",[6]; [7],118.4 mm Hg
same,"Haematocrit, mean","[6]; after delivery, 600 μg oral, n = 73",0.33
same,"Haematocrit, mean difference","[6]; after minus before delivery, n = 73",−0.01
same,"Temperature, mean difference (increase)","[6]; after minus before delivery, n = 182",0.5 C.
same,"Diastolic blood pressure, mean difference",[6]; [8],−0.8 mm Hg
same,"Systolic blood pressure, mean difference",[6]; [8],−1.0 mm Hg
same,"Diastolic blood pressure, mean",[6]; [9],73.8 mm Hg
same,"Systolic blood pressure, mean",[6]; [9],119.3 mm Hg
same,"Haematocrit, mean","[6]; before delivery, n = 73",0.34
same,"Temperature, mean","[6]; before delivery, n = 182",36.6 C.
same,Mean reduction of diastolic blood pressure (SE),[6]; [10],0.8 (0.6) mm Hg
same,Mean reduction of systolic blood pressure (SE),[6]; [10],1.0 (SE=0.9) mm Hg
same,Hypertensive effects,"[6]; women who were normotensive before labour, 600 μg oral",could not identify any hypertensive effects
CCCCC(C)(O)C/C=C/[C@H]1[C@H](O)CC(=O)[C@@H]1CCCCCCC(=O)O (mixture of isomers) [Misoprostol acid],Time of peak plasma levels,[2],less than fifteen

# — patent US6664290B1, “Oral or vaginal administration of mesoprostol in third stage labor” (University College London, priority 1994, dated 2003)
